Experimental data: the NIST ThermoML archive (doi:10.1021/je900882r)

What was measured:
[1] = refractive index (Na D-line) (dimensionless); mn = molality of the nth substance listed, in mol/kg; conditions: 298.15 K, 101 kPa, Liquid
[2] = mn = molality of the nth substance listed, in mol/kg; conditions: 298.15 K, 101 kPa, Liquid
[3] = cn = amount concentration of the nth substance listed, in mol/dm3; conditions: 298.15 K, 101 kPa, Liquid; for molar conductivity: Alternating current cell with electrodes; for viscosity: Capillary tube (Ostwald / Ubbelohde) method

CCCCn1cc[n+](C)c1.[Br-] [1-butyl-3-methylimidazolium bromide] + O
Conditions | mass density, [2] [kg/m3] | refractive index, [1]
m1 = 0.0909 | 1001.54 | 1.3357
m1 = 0.0915 | 1001.77 | 1.3359
m1 = 0.097 | 1001.97 | 1.336
m1 = 0.1797 | 1005.97 | 1.3382
m1 = 0.1833 | 1006.34 | 1.3388
m1 = 0.185 | 1006.46 | 1.339
m1 = 0.267 | 1010.2 | 1.3407
m1 = 0.2863 | 1011.4 | 1.3416
m1 = 0.2866 | 1011.29 | 1.3414
m1 = 0.3496 | 1014.39 | 1.343
m1 = 0.3564 | 1014.36 | 1.3433
m1 = 0.3651 | 1014.07 | 1.3437

C[C@H](N)C(=O)O [(S)-2-aminopropanoic acid] + O
[1], Standard Abbe refractometry
Conditions | refractive index
m1 = 0.0533 | 1.3326
m1 = 0.091 | 1.333
m1 = 0.1496 | 1.3337
m1 = 0.1913 | 1.3342
m1 = 0.2516 | 1.335
m1 = 0.2926 | 1.3355
m1 = 0.3514 | 1.3362
m1 = 0.3799 | 1.3365
m1 = 0.4471 | 1.3374
m1 = 0.4827 | 1.3378

Conditions | mass density [kg/m3] | molar conductivity [S·m2/mol] | viscosity [mPa·s]
[2], m1 = 0.0499 | 998.55 | – | –
[2], m1 = 0.0849 | 999.6 | – | –
[2], m1 = 0.1397 | 1001.23 | – | –
[2], m1 = 0.1784 | 1002.37 | – | –
[2], m1 = 0.2346 | 1004.02 | – | –
[2], m1 = 0.2731 | 1005.13 | – | –
[2], m1 = 0.3275 | 1006.7 | – | –
[2], m1 = 0.3551 | 1007.46 | – | –
[2], m1 = 0.4168 | 1009.23 | – | –
[2], m1 = 0.4513 | 1010.16 | – | –
[3], c1 = 0.0007166 | – | 0.0153 | –
[3], c1 = 0.001486 | – | 0.0148 | –
[3], c1 = 0.002275 | – | 0.0146 | –
[3], c1 = 0.003892 | – | 0.0145 | –
[3], c1 = 0.00566 | – | 0.0142 | –
[3], c1 = 0.007383 | – | 0.0139 | –
[3], c1 = 0.00904 | – | 0.0137 | –
[3], c1 = 0.0116 | – | 0.0135 | –
[3], c1 = 0.01431 | – | 0.0132 | –
[3], c1 = 0.01747 | – | 0.0129 | –
[3], c1 = 0.02104 | – | 0.0126 | –
[3], c1 = 0.02475 | – | 0.0123 | –
[3], c1 = 0.0532 | – | – | 0.886
[3], c1 = 0.091 | – | – | 0.891
[3], c1 = 0.1498 | – | – | 0.897
[3], c1 = 0.1918 | – | – | 0.902
[3], c1 = 0.2526 | – | – | 0.912
[3], c1 = 0.2941 | – | – | 0.921
[3], c1 = 0.3537 | – | – | 0.928
[3], c1 = 0.3827 | – | – | 0.936
[3], c1 = 0.4512 | – | – | 0.951
[3], c1 = 0.4876 | – | – | 0.957

NCC(=O)O [2-aminoacetic acid] + O
[1], Standard Abbe refractometry
Conditions | refractive index
m1 = 0.0941 | 1.3333
m1 = 0.1492 | 1.3339
m1 = 0.1972 | 1.3345
m1 = 0.2611 | 1.3354
m1 = 0.2975 | 1.3359
m1 = 0.303 | 1.336
m1 = 0.3935 | 1.337
m1 = 0.4408 | 1.3376

Conditions | mass density [kg/m3] | molar conductivity [S·m2/mol] | viscosity [mPa·s]
[2], m1 = 0.0521 | 998.7 | – | –
[2], m1 = 0.0997 | 1000.21 | – | –
[2], m1 = 0.1577 | 1002.02 | – | –
[2], m1 = 0.1992 | 1003.32 | – | –
[2], m1 = 0.2235 | 1004.07 | – | –
[2], m1 = 0.2902 | 1006.11 | – | –
[2], m1 = 0.3266 | 1007.22 | – | –
[2], m1 = 0.4495 | 1010.93 | – | –
[2], m1 = 0.5179 | 1012.94 | – | –
[3], c1 = 0.0007166 | – | 0.0153 | –
[3], c1 = 0.001486 | – | 0.0148 | –
[3], c1 = 0.002275 | – | 0.0146 | –
[3], c1 = 0.003892 | – | 0.0145 | –
[3], c1 = 0.00566 | – | 0.0142 | –
[3], c1 = 0.007383 | – | 0.0139 | –
[3], c1 = 0.00904 | – | 0.0137 | –
[3], c1 = 0.0116 | – | 0.0135 | –
[3], c1 = 0.01431 | – | 0.0132 | –
[3], c1 = 0.01747 | – | 0.0129 | –
[3], c1 = 0.02104 | – | 0.0126 | –
[3], c1 = 0.02475 | – | 0.0123 | –
[3], c1 = 0.052 | – | – | 0.881
[3], c1 = 0.0997 | – | – | 0.892
[3], c1 = 0.158 | – | – | 0.91
[3], c1 = 0.1999 | – | – | 0.92
[3], c1 = 0.2244 | – | – | 0.929
[3], c1 = 0.292 | – | – | 0.939
[3], c1 = 0.3289 | – | – | 0.945
[3], c1 = 0.4544 | – | – | 0.965
[3], c1 = 0.5246 | – | – | 0.98

CC(C)[C@H](N)C(=O)O [L-valine] + O
[1], Standard Abbe refractometry
Conditions | refractive index
m1 = 0.1173 | 1.3348
m1 = 0.1402 | 1.3353
m1 = 0.1894 | 1.3363
m1 = 0.2512 | 1.3375
m1 = 0.2973 | 1.3384
m1 = 0.3211 | 1.3389
m1 = 0.3841 | 1.3401
m1 = 0.4378 | 1.341

Conditions | mass density [kg/m3] | molar conductivity [S·m2/mol] | viscosity [mPa·s]
[2], m1 = 0.1173 | 1000.17 | – | –
[2], m1 = 0.1402 | 1000.77 | – | –
[2], m1 = 0.1894 | 1002.03 | – | –
[2], m1 = 0.2512 | 1003.59 | – | –
[2], m1 = 0.2973 | 1004.74 | – | –
[2], m1 = 0.3211 | 1005.32 | – | –
[2], m1 = 0.3841 | 1006.84 | – | –
[2], m1 = 0.4378 | 1008.11 | – | –
[3], c1 = 0.0007166 | – | 0.0153 | –
[3], c1 = 0.001486 | – | 0.0148 | –
[3], c1 = 0.002275 | – | 0.0146 | –
[3], c1 = 0.003892 | – | 0.0145 | –
[3], c1 = 0.00566 | – | 0.0142 | –
[3], c1 = 0.007383 | – | 0.0139 | –
[3], c1 = 0.00904 | – | 0.0137 | –
[3], c1 = 0.0116 | – | 0.0135 | –
[3], c1 = 0.01431 | – | 0.0132 | –
[3], c1 = 0.01747 | – | 0.0129 | –
[3], c1 = 0.1173 | – | – | 0.892
[3], c1 = 0.1403 | – | – | 0.899
[3], c1 = 0.1898 | – | – | 0.906
[3], c1 = 0.2521 | – | – | 0.916
[3], c1 = 0.2987 | – | – | 0.938
[3], c1 = 0.3228 | – | – | 0.943
[3], c1 = 0.3867 | – | – | 0.958
[3], c1 = 0.4413 | – | – | 0.979
